In patent US8470850B2, “Inhibitors of VEGF receptor and HGF receptor signalling” (MethylGene Inc., priority 2004, dated 2013):

Legend:
[1] = target: T1, VEGF receptor KDR (Homo sapiens, UniProt P35968); assay: In vitro receptor tyrosine kinase assay (DELFIA), VEGF receptor KDR; assay type: biochemical; conditions: ATP 0.6 uM; enzyme 5 nM; read-out: VEGF (enz.) (IC50)
T1 construct: made in house; host or cells: Sf9 cells (Spodoptera frugiperda), recombinant baculovirus
Excerpt: In the case of VEGF receptor KDR a 1.6-kb cDNA corresponding to the catalytic domain of VEGFR2 or KDR (Genbank accession number AF035121 amino acid 806 to 1356) was cloned into the Pst I site of the pDEST20 gateway vector (Invitrogen) for the production of a GST-tagged version of that enzyme.
The GST-VEGFR2806-1356 protein was expressed in Sf9 cells (Spodoptera frugiperda) upon infection with recombinant baculovirus construct.
The supernatant was loaded onto a GST-agarose column (Sigma) equilibrated with PBS pH 7.3. Following a four column volume (CV) wash with PBS pH 7.3+1% Triton X-100 and 4 CV wash with buffer B (50 mM Tris pH 8.0, 20% glycerol and 100 mM NaCl), bound proteins were step eluted with 5 CV of buffer B supplemented with 5 mM DTT and 15 mM glutathion. […] Final GST-VEGFR2806-1356 protein preparations concentrations were about 0.7 mg/ml with purity approximating 70%.

[2] = target: TPR-MET fusion protein (MNNGHOS cell line) (Homo sapiens, UniProt P08581); assay: C-Met phosphorylation cell-based assay; conditions: read-out: C-Met cell-based Y1230-34-35 tpr-met inhibition (IC50); MNNGHOS cells; compounds 3 hours prior to cell lysis
Chain of TPR-MET fusion protein (MNNGHOS cell line) (P08581 with tags, fused parts or gaps): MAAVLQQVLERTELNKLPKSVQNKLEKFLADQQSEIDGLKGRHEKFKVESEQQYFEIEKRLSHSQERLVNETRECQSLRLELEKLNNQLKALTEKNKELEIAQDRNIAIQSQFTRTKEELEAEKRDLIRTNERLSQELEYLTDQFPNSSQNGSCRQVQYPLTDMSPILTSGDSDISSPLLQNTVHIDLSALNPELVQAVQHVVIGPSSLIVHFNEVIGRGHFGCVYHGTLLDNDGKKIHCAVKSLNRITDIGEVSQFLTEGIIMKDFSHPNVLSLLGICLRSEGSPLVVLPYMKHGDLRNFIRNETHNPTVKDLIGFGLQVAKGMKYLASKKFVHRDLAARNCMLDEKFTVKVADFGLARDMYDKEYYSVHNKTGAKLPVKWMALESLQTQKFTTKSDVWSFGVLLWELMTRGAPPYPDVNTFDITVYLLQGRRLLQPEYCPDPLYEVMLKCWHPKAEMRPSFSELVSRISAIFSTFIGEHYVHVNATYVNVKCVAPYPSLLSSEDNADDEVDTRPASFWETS
Protocol: This test measures the ability of compounds to inhibit HGF stimulated auto-phosphorylation of the c-Met/HGF receptor itself in a whole cell system.
MNNGHOS cell line expressing TPR-MET fusion protein were purchased from ATCC.
Inhibitor of c-Met formulated as 30 mM stocks in DMSO. For MNNGHOS treatments, cells, compounds were added to tissue culture media at indicated doses for 3 hours prior to cell lysis.
Lysate were separated on 5-20% PAGE-SDS and immunoblots were performed using Immobilon P polyvinylidene difluoride membranes (Amersham) according to the manufacturer's instructions for handling. The blots were washed in Tris-buffered saline with 0.1% Tween 20 detergent (TBST). […] Signal was quantitated by densitometry on Alpha-Imager.

[3] = target: recombinant human c-Met/HGF receptor (Homo sapiens, UniProt P08581); assay: In vitro receptor tyrosine kinase assay (DELFIA), c-Met/HGF receptor; conditions: read-out: C-Met (enz.) (IC50); ATP 10 uM; enzyme 25 nM
Chain of recombinant human c-Met/HGF receptor (P08581 1078-1337): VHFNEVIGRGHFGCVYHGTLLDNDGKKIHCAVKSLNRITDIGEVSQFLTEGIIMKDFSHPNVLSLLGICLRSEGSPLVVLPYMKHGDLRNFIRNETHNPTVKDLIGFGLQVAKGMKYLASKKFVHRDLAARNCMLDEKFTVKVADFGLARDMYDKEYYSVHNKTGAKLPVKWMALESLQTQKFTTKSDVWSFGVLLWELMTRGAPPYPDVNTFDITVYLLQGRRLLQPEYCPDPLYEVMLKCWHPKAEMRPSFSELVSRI
Excerpt: These tests measure the ability of compounds to inhibit the enzymatic activity of recombinant human c-Met/HGF receptor and VEGF receptor enzymatic activity.
This construct was used to generate recombinant baculovirus using the Bac-N-Blue™ system according to the manucfacturer's instructions (Invitrogen)
The c-Met IC protein was expressed in Hi-5 cells (Trichoplusia Ni) upon infection with recombinant baculovirus construct. Briefly, Hi-5 cells grown in suspension and maintained in serum-free medium (Sf900 II supplemented with gentamycin) at a cell density of about 2×10^6 cells/ml were infected with the abovementioned viruses at a multiplicity of infection (MOI) of 0.2 during 72 hours at 27° C. with agitation at 120 rpm on a rotary shaker. […] Cell pellets were frozen at −80° C. until purification was performed.
All steps described in cell extraction and purification were performed at 4° C. Frozen Hi-5 cell pellets infected with the C-Met IC recombinant baculovirus were thawed and gently resuspended in Buffer A (20 mM Tris pH 8.0, 10% glycerol, 1 μg/ml pepstatin, 2 μg/ml Aprotinin and leupeptin, 50 μg/ml PMSF, 50 μg/ml TLCK and 10 μM E64, 0.5 mM DTT and 1 mM Levamisole) using 3 mL of buffer per gram of cells. The suspension was Dounce homogenized after which it was centrifuged at 22500 g, 30 min., 4° C. The supernatant (cell extract) was used as starting material for purification of c-Met IC.
The supernatant was loaded onto a QsepharoseFF column (Amersham Biosciences) equilibrated with Buffer B (20 mM Tris pH 8.0, 10% glycerol) supplemented with 0.05M NaCl. […]
Inhibition of c-Met/HGF receptor and VEGFR/KDR was measured in a DELFIA™ assay (Perkin Elmer). […] Phosphorylated product was detected by incubation with Europium-labeled anti-phosphotyrosine MoAb. After washing the plates, bound MoAb was detected by time-resolved fluorescence in a Gemini SpectraMax reader (Molecular Devices).

[4] = test system: U87MG; assay: In vivo solid tumor disease model, U87MG xenograft; parameters: species or system mice; conditions: 15 mg/kg once daily, IP, vehicle DMSO, 10 days
Excerpt: This test measures the capacity of compounds to inhibit solid tumor growth.
Tumor xenografts were established in the flank of female athymic CD1 mice (Charles River Inc.), by subcutaneous injection of 1×10^6U87, A431 or SKLMS cells/mouse. Once established, tumors were then serially passaged s.c. in nude mice hosts. Tumor fragments from these host animals were used in subsequent compound evaluation experiments. For compound evaluation experiments female nude mice weighing approximately 20 g were implanted s.c. by surgical implantation with tumor fragments of ˜30 mg from donor tumors. When the tumors were approximately 100 mm^3 in size (˜7-10 days following implantation), the animals were randomized a separated into treatment and control groups. Each group contained 6-8 tumor-bearing mice, each of which was ear-tagged and followed individually throughout the experiment
Mice were weighed and tumor measurements are taken by calipers three times weekly, starting on Day 1. These tumor measurements were converted to tumor volume by the well-known formula (L+W/4)^34/3π. The experiment was terminated when the control tumors reached a size of approximately 1500 mm^3. […] In addition to tumor volumes, body weight of animals were monitored twice weekly for up to 3 weeks.

T1 sequence (P35968 806-1356): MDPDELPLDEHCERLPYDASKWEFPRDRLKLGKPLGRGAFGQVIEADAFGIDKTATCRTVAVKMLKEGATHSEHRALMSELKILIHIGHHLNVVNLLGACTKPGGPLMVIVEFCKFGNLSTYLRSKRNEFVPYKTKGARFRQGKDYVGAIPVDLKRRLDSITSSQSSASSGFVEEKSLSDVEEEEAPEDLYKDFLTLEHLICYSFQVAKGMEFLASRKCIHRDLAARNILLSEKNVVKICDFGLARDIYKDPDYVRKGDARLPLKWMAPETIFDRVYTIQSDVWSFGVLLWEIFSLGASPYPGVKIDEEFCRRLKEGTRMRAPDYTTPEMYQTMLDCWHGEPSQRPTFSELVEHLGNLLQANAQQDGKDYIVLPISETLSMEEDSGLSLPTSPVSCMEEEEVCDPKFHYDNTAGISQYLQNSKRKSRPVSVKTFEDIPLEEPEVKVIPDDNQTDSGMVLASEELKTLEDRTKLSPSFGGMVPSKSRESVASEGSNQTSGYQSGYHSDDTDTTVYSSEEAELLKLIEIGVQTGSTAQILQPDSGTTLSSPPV

Compound | IC50 [1] [nM] | IC50 [2] [nM] | IC50 [3] [nM] | Tumor Growth Inhibition (%) [4]
O=C(Cc1ccccc1)NC(=S)Nc1ccc(Oc2ccnc3cc(C(=O)N4CCOCC4)sc23)c(F)c1 [Example 3] | 250 to 500 | 50 to 250 | 50 to 250 | –
Methyl 2-(1-(4-(2-(carbamoyl)thieno[3,2-b]pyridin-7-yloxy)-3-fluorophenyl)-3-(2-phenylacetyl)thioureido)propanoate [Example 11] | > 500 | 50 to 250 | 50 to 250 | –
CN1CCN(C(=O)c2cc3ncnc(Oc4ccc(NC(=S)NC(=O)Cc5ccccc5)cc4F)c3s2)CC1 [Example 24, 1-(4-(6-(4-N-Methylpiperazylcarbamoyl)thieno[3,2-d]pyrimidin-4-yloxy)-3-fluorophenyl)-3-(2-phenylacetyl)thiourea] | 250 to 500 | > 500 | 50 to 250 | –
Cn1cnnc1-c1cc2nccc(Oc3ccc(NC(=S)NC(=O)Cc4ccccc4)cc3F)c2s1 [Example 75, N-(3-Fluoro-4-(2-(4-methyl-4H-1,2,4-triazol-3-yl)thieno[3,2-b]pyridin-7-yloxy)phenylcarbamothioyl)-2-phenylacetamide] | – | – | – | d (% TGI in the range of 0-24)
